Laboratory results published in patent US9663508B2, “Biaryl acyl-sulfonamide compounds as sodium channel inhibitors” (AMGEN INC., priority 2013, dated 2017).

These molecules were tested against human Nav1.7 (Homo sapiens (Human), UniProt Q15858) (assay: Nav 1.7 in vitro PatchXpress (PX) assay). Conditions: not given.
Type: cell-based

human Nav1.7, sequence (Q15858 whole entry): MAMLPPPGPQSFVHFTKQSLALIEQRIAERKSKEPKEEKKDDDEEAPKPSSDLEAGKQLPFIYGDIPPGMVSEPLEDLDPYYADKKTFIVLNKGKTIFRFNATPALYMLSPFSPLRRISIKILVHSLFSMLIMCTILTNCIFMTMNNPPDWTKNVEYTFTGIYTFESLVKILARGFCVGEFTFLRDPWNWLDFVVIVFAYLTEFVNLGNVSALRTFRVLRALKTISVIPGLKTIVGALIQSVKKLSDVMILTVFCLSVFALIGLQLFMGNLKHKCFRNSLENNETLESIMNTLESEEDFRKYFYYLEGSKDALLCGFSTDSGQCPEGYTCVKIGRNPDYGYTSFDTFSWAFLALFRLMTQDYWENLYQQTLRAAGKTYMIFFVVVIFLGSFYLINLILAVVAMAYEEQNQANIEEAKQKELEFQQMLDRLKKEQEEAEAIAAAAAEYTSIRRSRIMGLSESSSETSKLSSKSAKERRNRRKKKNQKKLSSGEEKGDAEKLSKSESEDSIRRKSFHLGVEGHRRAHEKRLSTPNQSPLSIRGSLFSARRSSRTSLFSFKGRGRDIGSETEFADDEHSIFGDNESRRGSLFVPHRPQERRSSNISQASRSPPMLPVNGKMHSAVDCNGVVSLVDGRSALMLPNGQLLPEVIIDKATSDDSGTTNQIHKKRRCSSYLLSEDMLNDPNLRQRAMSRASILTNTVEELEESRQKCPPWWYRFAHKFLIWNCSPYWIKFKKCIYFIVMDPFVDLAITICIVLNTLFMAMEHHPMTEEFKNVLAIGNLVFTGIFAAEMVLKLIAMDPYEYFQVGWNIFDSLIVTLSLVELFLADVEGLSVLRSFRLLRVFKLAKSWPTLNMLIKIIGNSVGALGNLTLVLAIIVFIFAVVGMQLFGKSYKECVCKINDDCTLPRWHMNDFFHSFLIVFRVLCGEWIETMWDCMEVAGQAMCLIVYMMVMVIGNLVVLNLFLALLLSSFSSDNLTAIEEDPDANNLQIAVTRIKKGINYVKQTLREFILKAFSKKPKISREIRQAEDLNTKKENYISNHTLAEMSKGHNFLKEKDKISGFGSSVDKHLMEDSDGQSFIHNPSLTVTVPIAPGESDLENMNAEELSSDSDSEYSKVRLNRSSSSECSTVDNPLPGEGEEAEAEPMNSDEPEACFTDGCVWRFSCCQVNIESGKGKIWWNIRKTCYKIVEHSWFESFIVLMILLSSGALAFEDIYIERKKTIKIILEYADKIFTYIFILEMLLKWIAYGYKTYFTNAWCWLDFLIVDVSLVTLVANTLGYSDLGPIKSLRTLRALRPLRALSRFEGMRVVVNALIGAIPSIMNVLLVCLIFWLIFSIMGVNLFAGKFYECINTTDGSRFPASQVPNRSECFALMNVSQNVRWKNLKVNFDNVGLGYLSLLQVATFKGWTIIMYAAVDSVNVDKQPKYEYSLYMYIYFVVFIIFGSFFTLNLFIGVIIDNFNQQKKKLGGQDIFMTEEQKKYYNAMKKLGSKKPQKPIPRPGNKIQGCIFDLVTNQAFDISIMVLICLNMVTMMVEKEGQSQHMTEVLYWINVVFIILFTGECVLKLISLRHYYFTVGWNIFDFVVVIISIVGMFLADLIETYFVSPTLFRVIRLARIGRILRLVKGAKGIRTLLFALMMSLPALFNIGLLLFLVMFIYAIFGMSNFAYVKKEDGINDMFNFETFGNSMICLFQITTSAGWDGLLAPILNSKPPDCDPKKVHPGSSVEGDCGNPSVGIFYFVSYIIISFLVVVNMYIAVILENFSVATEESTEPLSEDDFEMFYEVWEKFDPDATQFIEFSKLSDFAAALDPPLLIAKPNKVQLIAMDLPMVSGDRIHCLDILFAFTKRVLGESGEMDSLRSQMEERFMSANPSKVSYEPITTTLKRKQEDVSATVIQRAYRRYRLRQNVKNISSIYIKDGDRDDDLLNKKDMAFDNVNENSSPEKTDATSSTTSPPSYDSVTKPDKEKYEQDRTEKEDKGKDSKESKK

Row | IC50 [nM] | SMILES
1 | 108 | Cc1cc(C(=O)NS(C)(=O)=O)c(F)cc1-c1cnc(Oc2ccc(OC(C)C)cc2)c(Cl)c1 [Example 663, 4-(5-chloro-6-(4-(1-methylethoxy)phenoxy)-3-pyridinyl)-2-fluoro-5-methyl-N-(methylsulfonyl)benzamide]
2 | 115 | Cc1cc(C(=O)NS(C)(=O)=O)c(F)cc1-c1cnc(OC(C(F)(F)F)C(F)(F)F)c(Cl)c1 [Example 686, 4-(5-chloro-6-(2,2,2-trifluoro-1-(trifluoromethyl)ethoxy)-3-pyridinyl)-2-fluoro-5-methyl-N-(methylsulfonyl)benzamide]
3 | 107 | Cc1cc(C(=O)NS(C)(=O)=O)c(F)cc1-c1cnc(N2CCC[C@@H]2c2ccccc2C(F)(F)F)c(Cl)c1 [Example 659, 4-(5-chloro-6-((2R)-2-(2-(trifluoromethyl)phenyl)-1-pyrrolidinyl)-3-pyridinyl)-2-fluoro-5-methyl-N-(methylsulfonyl)benzamide, 4-(5-chloro-6-((2S)-2-(2-(trifluoromethyl)phenyl)-1-pyrrolidinyl)-3-pyridinyl)-2-fluoro-5-methyl-N-(methylsulfonyl)benzamide]
4 | 63.6 | COc1cc(C(=O)NS(C)(=O)=O)ccc1-c1cnc(Oc2c(F)ccc(F)c2F)c(Cl)c1 [Example 362, 4-(5-chloro-6-(2,3,6-trifluorophenoxy)-3-pyridinyl)-3-methoxy-N-(methylsulfonyl)benzamide]
5 | 74.8 | CS(=O)(=O)NC(=O)c1ccc(-c2cnc(Oc3ccc4ccccc4c3)c(Cl)c2)c(OC(F)F)c1 [Example 446, 4-(5-chloro-6-(2-naphthalenyloxy)-3-pyridinyl)-3-(difluoromethoxy)-N-(methylsulfonyl)benzamide]
6 | 88.1 | CC[C@@H](Oc1ncc(-c2cc(F)c(C(=O)NS(C)(=O)=O)cc2C)cc1Cl)c1ccc(C)cc1 [Example 685, 4-(5-chloro-6-(((1R)-1-(4-methylphenyl)propyl)oxy)-3-pyridinyl)-2-fluoro-5-methyl-N-(methylsulfonyl)benzamide, 4-(5-chloro-6-(((1S)-1-(4-methylphenyl)propyl)oxy)-3-pyridinyl)-2-fluoro-5-methyl-N-(methylsulfonyl)benzamide]
7 | 46.8 | COc1cc(C(=O)NS(C)(=O)=O)c(F)cc1-c1cnc(Oc2cccc(Cl)c2C)c(Cl)c1 [Example 704, 4-(5-chloro-6-(3-chloro-2-methylphenoxy)-3-pyridinyl)-2-fluoro-5-methoxy-N-(methylsulfonyl)benzamide]
8 | 80 | C[C@H](Oc1ncc(-c2ccc(C(=O)NS(C)(=O)=O)cc2OC(F)F)cc1Cl)c1ccccc1 [Example 457, 4-(5-chloro-6-((1S)-1-phenylethoxy)-3-pyridinyl)-3-(difluoromethoxy)-N-(methylsulfonyl)benzamide]
9 | 58 | C[C@@H](Oc1ncc(-c2ccc(C(=O)NS(C)(=O)=O)cc2OC(F)F)cc1Cl)c1ccccc1 [Example 455, 4-(5-chloro-6-((1R)-1-phenylethoxy)-3-pyridinyl)-3-(difluoromethoxy)-N-(methylsulfonyl)benzamide]
10 | 60.3 | COc1cc(C(=O)NS(C)(=O)=O)ccc1-c1cnc(Oc2ccc(Cl)cc2F)c(Cl)c1 [Example 376, 4-(5-chloro-6-(4-chloro-2-fluorophenoxy)-3-pyridinyl)-3-methoxy-N-(methylsulfonyl)benzamide]
11 | 99.4 | CS(=O)(=O)NC(=O)c1ccc(-c2cnc(Oc3ccc4ccccc4c3)c(Cl)c2)c(OC2COC2)c1 [Example 424, 4-(5-chloro-6-(2-naphthalenyloxy)-3-pyridinyl)-N-(methylsulfonyl)-3-(3-oxetanyloxy)benzamide]
12 | 95 | Cc1ccc(Oc2ncc(-c3ccc(C(=O)NS(C)(=O)=O)cc3OC(F)F)cc2Cl)cc1C [Example 459, 4-(5-chloro-6-(3,4-dimethylphenoxy)-3-pyridinyl)-3-(difluoromethoxy)-N-(methylsulfonyl)benzamide]
13 | 123 | Cc1cc(C(=O)NS(C)(=O)=O)c(F)cc1-c1cnc(Oc2ccc(C(F)(F)F)c(F)c2)c(Cl)c1 [Example 671, 4-(5-chloro-6-(3-fluoro-4-(trifluoromethyl)phenoxy)-3-pyridinyl)-2-fluoro-5-methyl-N-(methylsulfonyl)benzamide]
14 | 98.9 | COc1ncc(Oc2ncc(-c3ccc(C(=O)NS(C)(=O)=O)cc3OC3COC3)cc2Cl)cc1Cl [Example 412, 4-(5-chloro-6-((5-chloro-6-methoxy-3-pyridinyl)oxy)-3-pyridinyl)-N-(methylsulfonyl)-3-(3-oxetanyloxy)benzamide]
15 | 66.3 | CCc1ccc(C)cc1Oc1ncc(-c2cc(F)c(C(=O)NS(C)(=O)=O)cc2C)cc1Cl [Example 680, 4-(5-chloro-6-(2-ethyl-5-methylphenoxy)-3-pyridinyl)-2-fluoro-5-methyl-N-(methylsulfonyl)benzamide]
16 | 78.8 | CS(=O)(=O)NC(=O)c1ccc(-c2cnc(OCCc3ccccc3)c(Cl)c2)c(OC(F)F)c1 [Example 467, 4-(5-chloro-6-(2-phenylethoxy)-3-pyridinyl)-3-(difluoromethoxy)-N-(methylsulfonyl)benzamide]

Row | SMILES | IC50 [nM]
17 | COc1cc(C(=O)NS(C)(=O)=O)ccc1-c1cnc(Oc2c(C)cc(Cl)cc2Cl)c(Cl)c1 [Example 578, 4-(5-Chloro-6-(2,4-Dichloro-6-Methylphenoxy)-Pyridin-3-yl)-3-Methoxy-N-(Methylsulfonyl)Benzamide] | 29.6
18 | Cc1cc(Cl)cc(Cl)c1Oc1ncc(-c2cc(F)c(C(=O)NS(C)(=O)=O)cc2Cl)cc1Cl [Example 598, 5-chloro-4-(5-chloro-6-(2,4-dichloro-6-methylphenoxy)-3-pyridinyl)-2-fluoro-N-(methylsulfonyl)benzamide] | 18.4

Same assay, conditions: in-vitro Nav 1.7 PX data

Row | IC50 [nM] | SMILES
19 | 87 | COc1cc(C(=O)NS(C)(=O)=O)c(F)cc1-c1cnc(Oc2cc(F)cc(F)c2)c(Cl)c1 [Example 740, 4-(5-chloro-6-(3,5-difluorophenoxy)-3-pyridinyl)-2-fluoro-5-methoxy-N-(methylsulfonyl)benzamide]
20 | 59.1 | COc1cc(C(=O)NS(C)(=O)=O)c(F)cc1-c1cnc(O[C@H]2C[C@H](C)C2)c(Cl)c1 [Example 735, 4-(5-chloro-6-((trans-3-methylcyclobutyl)oxy)-3-pyridinyl)-2-fluoro-5-methoxy-N-(methylsulfonyl)benzamide]
21 | 49.5 | COc1cc(C(=O)NS(C)(=O)=O)c(F)cc1-c1cnc(Sc2ccc(C)cc2)c(Cl)c1 [Example 728, 4-(5-chloro-6-((4-methylphenyl)sulfanyl)-3-pyridinyl)-2-fluoro-5-methoxy-N-(methylsulfonyl)benzamide]
22 | 77.6 | COc1cc(C(=O)NS(C)(=O)=O)c(F)cc1-c1cnc(O[C@@H](C)C2CCC2)c(Cl)c1 (single isomer, unassigned) [Example 767]
23 | 94.7 | CCOc1cc(C(=O)NS(C)(=O)=O)c(F)cc1-c1cnc(Oc2cccc(Cl)c2C)c(Cl)c1 [Example 779, 4-(5-chloro-6-(3-chloro-2-methylphenoxy)-3-pyridinyl)-5-ethoxy-2-fluoro-N-(methylsulfonyl)benzamide]
24 | 57.1 | Cc1cc(C(=O)NS(=O)(=O)c2nccs2)c(F)cc1-c1cnc(OC2CCC2)c(Cl)c1 [Example 795, 4-(5-chloro-6-(cyclobutyloxy)-3-pyridinyl)-2-fluoro-5-methyl-N-(1,3-thiazol-2-ylsulfonyl)benzamide]
25 | 114 | COc1cc(C(=O)NS(=O)(=O)N2CCC2)ccc1-c1cnc(Oc2cc(Cl)cc(Cl)c2)c(Cl)c1 [Example 773, N-(1-azetidinylsulfonyl)-4-(5-chloro-6-(3,5-dichlorophenoxy)-3-pyridinyl)-3-methoxybenzamide]
26 | 47.1 | COc1cc(C(=O)NS(C)(=O)=O)c(F)cc1-c1cnc(Oc2cc(F)c(Cl)c(F)c2)c(Cl)c1 [Example 763, 4-(5-chloro-6-(4-chloro-3,5-difluorophenoxy)-3-pyridinyl)-2-fluoro-5-methoxy-N-(methylsulfonyl)benzamide]
27 | 50.4 | COc1cc(C(=O)NS(C)(=O)=O)ccc1-c1cnc(Cc2ccc(Cl)c(Cl)c2)c(Cl)c1 [Example 793, 4-(5-chloro-6-(3,4-dichlorobenzyl)pyridin-3-yl)-3-methoxy-N-(methylsulfonyl)benzamide]
28 | 95.4 | COc1cc(C(=O)NS(C)(=O)=O)c(F)cc1-c1cnc(Oc2c(F)ccc(C)c2F)c(Cl)c1 [Example 759, 4-(5-chloro-6-(2,6-difluoro-3-methylphenoxy)-3-pyridinyl)-2-fluoro-5-methoxy-N-(methylsulfonyl)benzamide]
29 | 83.6 | COc1cc(C(=O)NS(C)(=O)=O)c(F)cc1-c1cnc(Oc2cc(Cl)ccc2F)c(Cl)c1 [Example 747, 4-(5-chloro-6-(5-chloro-2-fluorophenoxy)-3-pyridinyl)-2-fluoro-5-methoxy-N-(methylsulfonyl)benzamide]

More lines, now with the values behind:

Row | SMILES | IC50 [nM]
30 | COc1ncc(F)cc1-c1cc(-c2cc(F)c(C(=O)NS(C)(=O)=O)cc2F)cnc1OCC(C)C [Example 837, 2,5-Difluoro-4-(5′-Fluoro-2′-Methoxy-2-(2-Methylpropoxy)-3,3′-Bipyridin-5-yl)-N-(Methylsulfonyl)Benzamide] | 810
31 | COc1cc(C(=O)NS(C)(=O)=O)c(F)cc1-c1cnc(NC2CCC(C)(C)CC2)c(Cl)c1 [Example 724, 4-(5-chloro-6-((4,4-dimethylcyclohexyl)amino)-3-pyridinyl)-2-fluoro-5-methoxy-N-(methylsulfonyl)benzamide] | 106
32 | COc1cc(C(=O)NS(C)(=O)=O)c(F)cc1-c1cnc(Oc2ccc3ccccc3c2Cl)c(Cl)c1 [Example 717, 4-(5-chloro-6-((1-chloro-2-naphthalenyl)oxy)-3-pyridinyl)-2-fluoro-5-methoxy-N-(methylsulfonyl)benzamide] | 99.3
33 | COc1cc(Oc2ncc(-c3cc(F)c(C(=O)NS(C)(=O)=O)cc3OC)cc2Cl)c(Cl)cc1Cl [Example 716, 4-(5-chloro-6-(2,4-dichloro-5-methoxyphenoxy)-3-pyridinyl)-2-fluoro-5-methoxy-N-(methylsulfonyl)benzamide] | 91.7
34 | COc1cc(C(=O)NS(C)(=O)=O)c(F)cc1-c1cnc(OCC2(C)CCCCC2)c(Cl)c1 [Example 714, 4-(5-chloro-6-((1-methylcyclohexyl)methoxy)-3-pyridinyl)-2-fluoro-5-methoxy-N-(methylsulfonyl)benzamide] | 98.6
